Measurements published in patent publication US11110182B2, “Multifunctional RNA nanoparticles and methods for treating cancer and therapeutic resistant cancer” (University of Cincinnati, priority 2016, dated 2021).
Strand notation (5' to 3'): a small letter for the sugar, then the base; units joined by * are phosphorothioate-linked, units joined directly phosphodiester-linked; [ ] holds rarer units or linkages, { } end groups; capitals alone tell only the bases. r = 2'-OH (RNA); f = 2'-fluoro

B1: pRNA-HER2apt-siScram: control pRNA nanoparticle with HER2 aptamer and scramble siRNA; strands p1 SEQ ID NO: 1, p2 SEQ ID NO: 2 (nucleic acid)
chain 1: GGAUCACGCUUCAUAUACAAAGGAUCAAUCAUGGCCAAUCUUAUUUCGCCCAUGACCUU
chain 2: GGUCAUGGGCGAAAUAAGAAAGGCCAUGUGUAUGUGGGGGGAGGACGAUGCGGUCUGCUGUGCUUGAUAUGCCCCAGACGACUCGCCCCCCACAUACUUUGUUGAUCCAAUGUAUAUGAAGCGUGAUCCUU
modifications: pRNA-HER2apt-siScram, p1; pRNA-HER2apt-siScram, p2

Assays:
MED1 = MED1 protein level by western blotting in BT474 cells; assay type: cell-based, human; details: BT474, 48 h
Experimental: FIG. 3A) BT474 cells were incubated with 10 μg/mL control and pRNA-HER2apt-siMED1 nanoparticles for 48 h, and MED1 mRNA level was determined by real-time PCR. FIG. 3B) BT474 cells were incubated directly with (as indicated by -) or transfected with indicated pRNAs using lipofectamine 2000. At 48 h post treatment, MED1 protein levels were determined by western blotting. FIG. 3C) BT474 cells were treated with 10 μg/mL pRNA nanoparticles for 48 h and assayed for cell viability by MTT assay. FIG. 3D) Cells were treated as above and seeded for migration, and FIG. 3E) invasion transwell assays. Scale bar: 50 μm. FIG. 3F) After pRNA treatment for 48 h, the mRNA levels of ERα target genes TFF-1, FIG. 3G) c-Myc, and FIG. 3H) cyclin D1 in BT474 cells were determined by real-time PCR.
FIG. 7A) Six HER2-targeting RNA aptamers were selected from previous literatures, and their secondary structures were predicted using Srna-fold software. FIG. 7B) Six p2 strands containing the six different HER2 RNA aptamers were synthesized and annealed with the same p1 strand to generate six different pRNA-HER2apt-MED1 siRNA nanoparticles, respectively, followed by examination using 8% native PAGE gel electrophoresis. FIG. 7C) BT474 cells were treated with above pRNA nanoparticles for 48 h, and then MED1 protein level was determined by western blotting. […] FIG. 7D) 1 μg pRNA nanoparticles were incubated with recombinant Dicer enzyme (Genlantis) at 37° C. for 12 h, the product was separated by 8% native PAGE gel.
FIG. 9A) BT474 cells were treated with different concentrations of pRNA nanoparticles as indicated for 48 h. After that, MED1 protein level was determined by western blots, and FIG. 9B) the cell viability was determined by MTT assay.
Cell culture. Human breast cancer luciferase-overexpressing BT474 and MDA-MB-231 cells were maintained in DMEM medium (Hyclone, Thermo Scientific) supplemented with 10% fetal bovine serum (FBS, Sigma) and 1% penicillin/streptomycin (Corning) at 37° C. in a humidified atmosphere with 5% CO2.^53 • Generation of pRNA nanoparticles. The two strands of pRNA were synthesized with the DNA templates, which were amplified with overlapping primers (Sigma) by PCR methods, using a T7 promoter-controlled in vitro RNA transcription system as previously described^33 (Table 1). All the CTP and UTP used for synthesis of the pRNA nanoparticles were 2′-fluoro modified, except the control unmodified pRNA nanoparticles used in the stability assays. Following an overnight transcription at 37° C., RNA strands were purified using RNA clean and concentrator kits (ZYMO research) and examined by 8 M urea denatured 8% PAGE gel. pRNA nanoparticles were assembled by mixing the equal molar amounts of p1 and p2 strands and gradually annealing from 90° C. to 20° C. in 1×RNA annealing buffer containing 50 mM Tris-HCl (pH 7.5), 50 mM NaCl and 1 mM EDTA on a PCR machine. […] The hydrodynamic diameter and Tm value of pRNA nanoparticles were determined using dynamic light scattering and TGGE assay, respectively, as previously described.^54 The AFM imaging of the pRNA nanoparticles was performed at the University of Nebraska Medical Center imaging facility as previously reported.^55 Briefly, the pRNA nanoparticles (5 μL) were deposited on APS modified mica ^56 for a total of 2 min of incubation time. […]

[1] = system: BT474 orthotopic xenograft tumors; assay: Anti-tumor therapy in BT474 orthotopic xenograft breast tumor mouse model; assay type: in vivo, athymic nude mice; details: single agent; for tumor lung metastasis: H&E staining of whole lung
Experimental: FIG. 5A) BT474 orthotopic xenograft mouse models were treated with control pRNA-HER2apt-siScram or pRNA-HER2apt-siMED1 (4 mg/Kg) once a week, in combination with vehicle or tamoxifen (TAM, 0.5 mg/mice/day) 5 days per week. Tumor sizes were measured every three days. FIG. 5B) After three weeks, mice were i.p. injected with D-luciferin, and representative in vivo images of BT474 tumors were recorded using IVIS Lumina imaging system. FIG. 5C) Average weight of the tumors excised at the end of the treatment, and FIG. 5D) the representative photos of tumors. FIG. 5E and FIG. 5F) MED1 expression in the BT474 tumors was examined using IHC staining and FIG. 5G) immunoblotting. FIG. 5H) The expression of Ki-67 in tumor tissues was analyzed using IHC staining, and FIG. 5I) the percentage of Ki-67 positive cells was counted. Scale bar: 100 μm.
FIG. 6A) Whole lung tissues were fixed, embedded, and sectioned for H&E staining, and FIG. 6B) metastasis foci in the whole lung tissues were then counted. Arrow indicates the metastasis foci. Scale bar: 100 μm. FIG. 6C) After digesting tumor tissues with trypsin and 0.1% collagenase, tumor cells were stained for CD44 and CD24, and FIG. 6D) analyzed for CD44^+CD24^−/low stem cell population using flow cytometry. FIG. 6E) Total RNA in the tumor tissues was extracted using TRIZOL reagent, and the expression of TFF-1, FIG. 6F) c-Myc, FIG. 6G) cyclin D1, and FIG. 6H) MMP-9 were determined by real-time PCR.
Migration and metastasis assay. The 8-μm-pore-size polycarbonate membrane, which separates the two chambers of a 6.5-mm Transwell (Costar), was coated with or without 1:8 DMEM-diluted Matrigel (Corning). Transwell assay was performed as previously described.^57 Briefly, BT474 cells were treated with pRNAs alone or together with 4-hydroxy-tamoxifen (4-OHT) for 48 h and starved with serum-free DMEM containing 0.2% BSA overnight. On the next day, cells were collected and 2×10^5 cells were seeded to the upper chamber of Transwell. The lower chamber was filled with 600 μL DMEM medium containing 10% FBS. After incubation at 37° C. for 24 h, cells on the membranes were fixed and stained with 0.1% crystal violet in 20% ethanol solution. Cells at top side of membranes were removed completely, and cells at the bottom side were examined with an Olympus SZX12 microscope and counted. • Mammosphere culture and breast cancer stem cell analyses. BT474 cells were treated with pRNAs for 48 h. Then, cells were suspended in DMEM/F12 medium supplemented with 1×B27 (Thermo Fisher), 20 ng/mL bFGF and 20 ng/mL EGF (R&D), and added into 24-well ultralow attachment plates. After treatment with or without 1 μM 4-OHT for 7 days, mammosphere formation was recorded using an Axiovert S100 TV inverted microscope (Zeiss). Xenograft tumor tissues were cut into small pieces and digested with trypsin and collagenase at 37° C. for 1 h, and tumor cells were collected and rinsed with pre-cold PBS. All cells were stained with FITC-conjugated anti-CD44 antibody and PE-conjugated anti-CD24 antibody (BD Pharmingen) in the dark on ice for 30 min. After resuspension with 0.5 mL PBS buffer, CD44^+/CD24^−/low cell population was analyzed by flow cytometry. • Orthotopic xenograft breast tumor mouse model, in vivo imaging and anti-tumor therapy. Six-week-old female athymic nude mice were purchased from Charles River Laboratories, and all animal procedures were performed under IACUC-approved protocols at the University of Cincinnati. Athymic nude mice were orthotopically injected with 1×10^7 BT474-luc cells mixed with matrigel into the fat pads of the forth pair of mammary glands. When the tumor sizes reached 100-150 mm^3, the mice were randomly divided into four groups (4/group) and intravenously (i.v.) injected with pRNAs (4 mg/Kg) once a week for three weeks. For tamoxifen treatments, 0.5 mg tamoxifen (Sigma) dissolved in sesame oil was intraperitoneally (i.p.) injected into mice 5 days a week for three weeks. […]

Molecule	efficiency of MED1 knockdown among six HER2 RNA aptamers in pRNA nanoparticles (MED1)	tumor lung metastasis [1]	tumor growth ([1]; pRNA 4 mg/Kg i.v. once a week or tamoxifen 0.5 mg i.p. 5 days a week, three weeks)
B3 aptamer: HER2-targeting RNA aptamer B3 (SEQ ID NO: 9), tested within pRNA-HER2apt-MED1 siRNA nanoparticles (rGrGrGrArGrGrAfCrGrAfUrGfCrGrGfUfCfUrGfCfUrGfUrGfCfUfUrGrAfUrAfUrGfCfCfCfCrArGrAfCrGrAfCfUfCrGfCfCfC; part of pRNA three-way junction nanoparticle with siRNA)	highest efficiency	–	–
CC/C(=C(\c1ccccc1)c1ccc(OCCN(C)C)cc1)c1ccccc1 [tamoxifen, reference compound]	–	multiple tumor lung metastasis foci	only weakly inhibited
B1	–	multiple tumor lung metastasis foci	–
